According to ChEMBL document CHEMBL1148513, “Synthetic studies of neoclerodane diterpenes from Salvia divinorum: selective modification of the furan ring” (Bioorg Med Chem Lett, 2006):
pKi: −log10 of the molar value.

target: Mu-type opioid receptor (Homo sapiens, UniProt P35372); test: Displacement of [125I]IOXY from human mu opioid receptor
Sequence (P35372 whole entry): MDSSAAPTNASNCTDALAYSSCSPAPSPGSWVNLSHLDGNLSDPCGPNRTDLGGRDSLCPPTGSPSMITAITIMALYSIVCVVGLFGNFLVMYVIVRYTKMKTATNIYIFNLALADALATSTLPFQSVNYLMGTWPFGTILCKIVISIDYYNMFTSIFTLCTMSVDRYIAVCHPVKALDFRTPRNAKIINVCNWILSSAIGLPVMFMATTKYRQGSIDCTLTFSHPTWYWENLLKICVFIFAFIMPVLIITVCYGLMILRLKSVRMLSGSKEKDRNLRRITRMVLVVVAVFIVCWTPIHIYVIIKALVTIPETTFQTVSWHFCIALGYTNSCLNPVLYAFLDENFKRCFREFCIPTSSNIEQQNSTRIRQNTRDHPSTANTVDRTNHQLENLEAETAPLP

| SMILES | pKi |
| --- | --- |
| COC(=O)[C@@H]1C[C@H](OC(C)=O)C(=O)[C@H]2[C@@]1(C)CC[C@H]1C(=O)O[C@H](c3ccn(S(C)(=O)=O)c3)C[C@]21C | < 5.00 |
| COC(=O)[C@@H]1C[C@H](OC(C)=O)C(=O)[C@H]2[C@@]1(C)CC[C@H]1C(=O)O[C@H](c3ccn(S(=O)(=O)c4ccc(OC)cc4)c3)C[C@]21C | < 5.00 |
| COC(=O)c1coc([C@@H]2C[C@]3(C)[C@H]4C(=O)[C@@H](OC(C)=O)C[C@@H](C(=O)OC)[C@]4(C)CC[C@H]3C(=O)O2)n1 | < 5.00 |
| COC(=O)[C@@H]1C[C@H](OC(C)=O)C(=O)[C@H]2[C@@]1(C)CC[C@H]1C(=O)O[C@H](c3ccn(S(=O)(=O)c4ccccc4)c3)C[C@]21C | < 5.00 |

target: Delta-type opioid receptor (Homo sapiens, UniProt P41143); test: Displacement of [125I]IOXY from human delta opioid receptor
Sequence (P41143 whole entry): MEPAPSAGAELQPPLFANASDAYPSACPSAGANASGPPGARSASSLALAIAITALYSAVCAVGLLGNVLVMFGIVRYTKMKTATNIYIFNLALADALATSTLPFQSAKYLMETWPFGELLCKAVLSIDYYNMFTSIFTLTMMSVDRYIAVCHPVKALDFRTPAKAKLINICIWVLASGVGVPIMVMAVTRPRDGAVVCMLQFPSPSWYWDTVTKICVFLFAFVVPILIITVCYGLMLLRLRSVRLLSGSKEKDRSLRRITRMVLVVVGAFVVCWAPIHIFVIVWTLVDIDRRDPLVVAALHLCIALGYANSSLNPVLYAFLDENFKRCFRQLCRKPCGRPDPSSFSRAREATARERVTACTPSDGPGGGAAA

| SMILES | pKi |
| --- | --- |
| COC(=O)[C@@H]1C[C@H](OC(C)=O)C(=O)[C@H]2[C@@]1(C)CC[C@H]1C(=O)O[C@H](c3ccn(S(C)(=O)=O)c3)C[C@]21C | < 5.00 |
| COC(=O)[C@@H]1C[C@H](OC(C)=O)C(=O)[C@H]2[C@@]1(C)CC[C@H]1C(=O)O[C@H](c3ccn(S(=O)(=O)c4ccc(OC)cc4)c3)C[C@]21C | < 5.00 |
| COC(=O)c1coc([C@@H]2C[C@]3(C)[C@H]4C(=O)[C@@H](OC(C)=O)C[C@@H](C(=O)OC)[C@]4(C)CC[C@H]3C(=O)O2)n1 | < 5.00 |
| COC(=O)[C@@H]1C[C@H](OC(C)=O)C(=O)[C@H]2[C@@]1(C)CC[C@H]1C(=O)O[C@H](c3ccn(S(=O)(=O)c4ccccc4)c3)C[C@]21C | < 5.00 |

target: T1, Kappa-type opioid receptor (Homo sapiens, UniProt P41145); test: Displacement of [125I]IOXY from human kappa opioid receptor
T1 sequence (P41145 whole entry): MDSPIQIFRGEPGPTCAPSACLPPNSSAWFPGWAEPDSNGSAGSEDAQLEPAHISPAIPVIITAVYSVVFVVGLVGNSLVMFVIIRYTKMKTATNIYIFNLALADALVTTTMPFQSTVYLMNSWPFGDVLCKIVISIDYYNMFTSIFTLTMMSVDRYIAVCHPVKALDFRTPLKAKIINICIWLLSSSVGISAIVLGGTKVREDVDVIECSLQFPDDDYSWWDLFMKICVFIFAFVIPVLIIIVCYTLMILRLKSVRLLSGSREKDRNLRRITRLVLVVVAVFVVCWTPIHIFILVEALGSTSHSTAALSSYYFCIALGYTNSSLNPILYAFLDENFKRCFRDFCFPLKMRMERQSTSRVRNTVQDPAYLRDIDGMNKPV

| SMILES | pKi |
| --- | --- |
| COC(=O)[C@@H]1C[C@H](OC(C)=O)C(=O)[C@H]2[C@@]1(C)CC[C@H]1C(=O)O[C@H](c3ccn(S(C)(=O)=O)c3)C[C@]21C | 6.08 |
| COC(=O)[C@@H]1C[C@H](OC(C)=O)C(=O)[C@H]2[C@@]1(C)CC[C@H]1C(=O)O[C@H](c3ccn(S(=O)(=O)c4ccc(OC)cc4)c3)C[C@]21C | 5.79 |
| COC(=O)c1coc([C@@H]2C[C@]3(C)[C@H]4C(=O)[C@@H](OC(C)=O)C[C@@H](C(=O)OC)[C@]4(C)CC[C@H]3C(=O)O2)n1 | 5.07 |
| COC(=O)[C@@H]1C[C@H](OC(C)=O)C(=O)[C@H]2[C@@]1(C)CC[C@H]1C(=O)O[C@H](c3ccn(S(=O)(=O)c4ccccc4)c3)C[C@]21C | 6.39 |

target: T1, Kappa-type opioid receptor; test: Agonist activity at human kappa opioid receptor stably transfected in CHO cells by [35S]GTP-gamma-S assay; type: functional, cell-based

| SMILES | ED50 |
| --- | --- |
| COC(=O)[C@@H]1C[C@H](OC(C)=O)C(=O)[C@H]2[C@@]1(C)CC[C@H]1C(=O)O[C@H](c3ccn(S(C)(=O)=O)c3)C[C@]21C | 3.6 µM |
| COC(=O)[C@@H]1C[C@H](OC(C)=O)C(=O)[C@H]2[C@@]1(C)CC[C@H]1C(=O)O[C@H](c3ccn(S(=O)(=O)c4ccc(OC)cc4)c3)C[C@]21C | 15.2 µM |
| COC(=O)[C@@H]1C[C@H](OC(C)=O)C(=O)[C@H]2[C@@]1(C)CC[C@H]1C(=O)O[C@H](c3ccn(S(=O)(=O)c4ccccc4)c3)C[C@]21C | 9.16 µM |

target: T1, Kappa-type opioid receptor; test: Agonist activity at human kappa opioid receptor stably transfected in CHO cells by [35S]GTPgammaS assay relative to (-)-U50488; type: functional, cell-based

| SMILES | Emax |
| --- | --- |
| COC(=O)[C@@H]1C[C@H](OC(C)=O)C(=O)[C@H]2[C@@]1(C)CC[C@H]1C(=O)O[C@H](c3ccn(S(C)(=O)=O)c3)C[C@]21C | 70% |
| COC(=O)[C@@H]1C[C@H](OC(C)=O)C(=O)[C@H]2[C@@]1(C)CC[C@H]1C(=O)O[C@H](c3ccn(S(=O)(=O)c4ccc(OC)cc4)c3)C[C@]21C | 60% |
| COC(=O)[C@@H]1C[C@H](OC(C)=O)C(=O)[C@H]2[C@@]1(C)CC[C@H]1C(=O)O[C@H](c3ccn(S(=O)(=O)c4ccccc4)c3)C[C@]21C | 60% |
